Measured values published in patent publication EP1832576A1, “4-Biarylyl-1-phenolyzetidin-2-ones” (Microbia Inc., priority 2003, dated 2005).

Test system: cholesterol absorption from the intestine
Experiment: In Vivo Assay of Hypolipidemic Agents using the Rat Cholesterol Absorption Model
Parameters: species or system Female Sprague-Dawley rats
Conditions: po, 3H levels in serum three hours after 3H-cholesterol; for inhibition at 1 mg/kg: versus vehicle only control
Method in brief: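 Fasted female Sprague-Dawley rats (150–250 g, 4–6/group) received compound orally in olive oil or vehicle. Thirty minutes later they were given 3–5 µCi ^3H-cholesterol orally in olive oil, and serum ^3H was counted at 3 h. Percent inhibition versus vehicle control is at a fixed dose; ED50 is the dose giving half-maximal effect on serum ^3H.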

Question: Which inhibition at 1 mg/kg (Table 1, perorally) does the source give for `CC(C)Oc1cccc(-c2ccc([C@@H]3[C@@H](CC[C@H](O)c4ccc(F)cc4)C(=O)N3c3ccc(F)cc3)cc2)c1` [Example 105, (3R,4S)-1-(4-fluorophenyl)-3-[(3S)-3-(4-fluorophenyl)-3-hydroxypropyl]-4-(3'-isopropoxybiphenyl-4-yl)azetidin-2-one] here?
Answer: The inhibition at 1 mg/kg was 15%.

Question: Which inhibition at 1 mg/kg (Table 1, perorally) does the source give for `O=Cc1ccc(-c2ccc([C@@H]3[C@@H](CC[C@H](O)c4ccc(F)cc4)C(=O)N3c3ccc(F)cc3)cc2)cc1` [Example 99, 4'-{(2S,3R)-1-(4-fluorophenyl)-3-[(3S)-3-(4-fluorophenyl)-3-hydroxypropyl]-4-oxoazetidin-2-yl}-biphenyl-4-carbaldehyde] here?
Answer: Its inhibition at 1 mg/kg is 38%.

Question: `O=C1[C@H](CC[C@H](O)c2ccc(F)cc2)[C@@H](c2ccc(-c3cccc(O)c3)cc2O)N1c1ccc(F)cc1` [Example 121, (3R,4S)-4-(3,3'-dihydroxybiphenyl-4-yl)-1-(4-fluorophenyl)-3-[(3S)-3-(4-fluorophenyl)-3-hydroxypropyl]azetidin-2-one] was tested. Which inhibition at 1 mg/kg (Table 2, perorally) did it give?
Answer: Its inhibition at 1 mg/kg is 72%.

Question: How did the inhibition at 1 mg/kg (Table 2, perorally) turn out when `O=C1[C@H](CC[C@H](O)c2ccc(F)cc2)[C@@H](c2ccc(-c3ccc(O)cc3)cc2O)N1c1ccccc1` [Example 125, (3R,4S)-4-(3,4'-dihydroxybiphenyl-4-yl)-3-[(3S)-3-(4-fluorophenyl)-3-hydroxypropyl]-1-phenylazetidin-2-one] was run?
Answer: The inhibition at 1 mg/kg was 64%.

Question: Which inhibition at 1 mg/kg (Table 1, perorally) does the source give for `O=C1[C@H](CC[C@H](O)c2ccc(F)cc2)[C@@H](c2ccc(-c3ccc4c(c3)OCCO4)cc2)N1c1ccc(F)cc1` [Example 87, (3R,4S)-4-[4-(2,3-dihydro-1,4-benzodioxin-6-yl)phenyl]-1-(4-fluorophenyl)-3-[(3S)-3-(4-fluorophenyl)-3-hydroxypropyl]azetidin-2-one] here?
Answer: The inhibition at 1 mg/kg was 59%.

Question: How did the inhibition at 1 mg/kg (Table 1, perorally) turn out when `O=C1[C@H](CC[C@H](O)c2ccc(F)cc2)[C@@H](c2ccc(-c3cc(O)ccc3Br)cc2)N1c1ccc(F)cc1` [Example 19, (3R,4S)-4-(2'-bromo-5'-hydroxybiphenyl-4-yl)-1-(4-fluorophenyl)-3-[(3S)-3-(4-fluorophenyl)-3-hydroxypropyl]azetidin-2-one] was run?
Answer: Its inhibition at 1 mg/kg is 66%.

Question: Which inhibition at 10 mg/kg (Table 1, footnote 1, perorally, 10 mg/kg) does the source give for `O=C1[C@H](CC[C@H](O)c2ccc(F)cc2)[C@@H](c2ccc(-c3cccc([N+](=O)[O-])c3)cc2)N1c1ccc(F)cc1` [Example 23, (3R,4S)-1-(4-fluorophenyl)-3-[(3S)-3-(4-fluorophenyl)-3-hydroxypropyl]-4-(3'-nitrobiphenyl-4-yl)azetidin-2-one] here?
Answer: The inhibition at 10 mg/kg was 54%.

Question: With `COc1ccc(C=O)c(-c2ccc([C@@H]3[C@@H](CC[C@H](O)c4ccc(F)cc4)C(=O)N3c3ccc(F)cc3)cc2)c1` [Example 85, 4'-{(2S,3R)-1-(4-fluorophenyl)-3-[(3S)-3-(4-fluorophenyl)-3-hydroxypropyl]-4-oxoazetidin-2-yl}-5-methoxybiphenyl-2-carbaldehyde] as the molecule, how does the inhibition at 1 mg/kg (Table 1, perorally) read?
Answer: The inhibition at 1 mg/kg was 15%.

Question: Which inhibition at 1 mg/kg (Table 1, perorally) does the source give for `Cc1ccccc1-c1ccc([C@@H]2[C@@H](CC[C@H](O)c3ccc(F)cc3)C(=O)N2c2ccc(F)cc2)cc1` [Example 98, (3R,4S)-1-(4-fluorophenyl)-3-[(3S)-3-(4-fluorophenyl).3-hydroxypropyl]-4-(2'-methylbiphenyl-4-yl)azetidin-2-one] here?
Answer: The inhibition at 1 mg/kg was 7%.

Question: With `O=C1[C@H](CC[C@H](O)c2ccc(F)cc2)[C@@H](c2ccc(-c3cccc(B(O)O)c3)cc2)N1c1ccccc1` [Example 59, (4'-{(2S,3R)-3-[(3S)-3-(4-Fluorophenyl)-3-hydroxypropyl]-4-oxo-1-phenylazetidin-2-yl}biphenyl-3-yl)boronic acid] as the molecule, how does the inhibition at 1 mg/kg (Table 2, perorally) read?
Answer: Its inhibition at 1 mg/kg is 70%.

Question: `O=C1[C@H](CC[C@H](O)c2ccc(F)cc2)[C@@H](c2ccc(-c3cccc(O)c3)cn2)N1c1ccccc1` [Example 49, (3R,4S)-3-[(3S)-3-(4-fluorophenyl)-3-hydroxypropyl]-4-[5-(3-hydroxyphenyl)pyridin-2-yl]-1-phenylazetidin-2-one] was tested. Which inhibition at 1 mg/kg (Table 2, perorally) did it give?
Answer: Its inhibition at 1 mg/kg is 30%.
